Tested on: cytokine producing, kill switch inducible cell line
Assay: Small molecule inducible kill switch
Assay type: cell-based
Details: 100 nM
Excerpt: Cell engineering for cells equipped with a small molecule inducible kill switch consist of a base epithelial cell line and a highly modular PiggyBAC transposon system. This vector system is composed of a strong promotor that is constitutively expressed, a kozak translation initiation sequence, the gene of interest (any cytokine, chemokine, or other protein), an internal ribosome entry site, a kill switch gene, a puromycin resistance gene and a poly-A tail in between two inverted terminal repeat sequences. Variation to this system requires only gene of interest swapping and allows for quick and easy “plug and play” cell engineering. The kill switch can be added to enhance the safety of cells engineered to produce the following cytokines: IL-1, IL-1a, IL-1b, IL-1RA, IL-2, IL-4, IL-5, IL-6, IL-7, IL-8, IL-9, IL-10, IL-11, IL-12, IL-12a, IL-12b, IL-13, IL-14, IL-15, IL-16, IL-17, IL-20, IFN-α, IFN-b, IFN-c, TNF-α, TNF-b, TGF-b, CCL-1, CCL-2, CCL-3, CCL-4, CCL-5, CCL-6, CCL-7, CCL-8, CCL-9, CCL-10, CCL-11, CCL-12, CCL-13, CCL-14, CCL-15, CCL-16, CCL-18, CCL-19, CCL-20, CCL-21, CCL-22, CCL-23, CCL-24, CCL-25, CCL-26, CCL-27, CCL-28, CXCL1, CXCL2, CXCL3, CXCL4, CXCL5, CXCL6, CXCL7, CXCL8, CXCL9, CXCL10, CXCL11, CXCL12, CXCL13, CXCL14, CXCL15, CXCL16, CXCL17. […]

CC[C@H](C(=O)N1CCCC[C@H]1C(=O)O[C@H](CCc1ccc(OC)c(OC)c1)c1cccc(OCC(=O)NCCNC(=O)COc2cccc([C@@H](CCc3ccc(OC)c(OC)c3)OC(=O)[C@@H]3CCCCN3C(=O)[C@@H](CC)c3cc(OC)c(OC)c(OC)c3)c2)c1)c1cc(OC)c(OC)c(OC)c1 [AP1903, rimiducid]
time in which the kill switch inducible cell line responds: less than 24 hours

— patent US20260273059A1, “METHODS OF EVADING IMMUNE REJECTION” (William Marsh Rice University, priority 2023, published 2026)
